Data on 31 molecules can be found in US9079880B2, “Rho kinase inhibitors” (Boehringer Ingelheim International GmbH, priority 2010, dated 2015).

SMILES strings stand for the structures. pIC50: −log10 of the molar value.

Assay [1] concerns the target T1, ROCKII (1-543) (Homo sapiens (Human), UniProt O75116). Kind of assay: Luciferin-Luciferase Assay (PKLight ATP detection). In kind it is biochemical. The following applies: 750 nM ATP, 500 nM peptide, 7.5 nM kinase. Here is the method: 1. Luciferin-Luciferase Assay
The activity of ROCKII (1-543) kinase was measured utilizing Cambrex PKLight ATP Detection Reagent, a homogeneous assay technology using luciferin-luciferase to quantify residual ATP. The assay was performed in 384-well low-volume, white, non-binding surface microtiter plates (Corning). The assay buffer was 25 mM HEPES, pH 7.5, 10 mM MgCl2, 50 mM KCl, 0.2% BSA, 0.01% CHAPS, 100 μM Na3VO4 and 0.5 mM DTT. Test compounds, dissolved in neat DMSO at 500 μg/mL, were serially diluted for dose response for a final starting concentration of 3 μg/mL in 1% DMSO of assay buffer. ROCKII (1-543) (62,408Da) was diluted in assay buffer to a final concentration of 7.5 nM in a total volume of 15 μL. Positive controls were reaction mixtures containing no test compound; negative controls (blanks) were reaction mixtures containing no kinase. After 15 minutes of pre-incubation of the test compounds with the kinase, a mixture of ATP and peptide substrate ([…]) in assay buffer was added to each well for a final concentration of 750 nM ATP and 500 nM peptide, respectively. After 90 minutes of incubation of the kinase reaction at 28° C. temperature, 10 μL of PKLight ATP Detection Reagent (warmed to room temperature previously) was added to each well. The assay plate was incubated at room temperature for additional 15 minutes and then read on an Analyst in luminescence mode. Dose-response experiments for each of the test compounds were conducted in quadruplet. IC50 values of test compounds represent 50% response of the positive control from the dose-response curve.
Target sequence in this assay (O75116 1-543): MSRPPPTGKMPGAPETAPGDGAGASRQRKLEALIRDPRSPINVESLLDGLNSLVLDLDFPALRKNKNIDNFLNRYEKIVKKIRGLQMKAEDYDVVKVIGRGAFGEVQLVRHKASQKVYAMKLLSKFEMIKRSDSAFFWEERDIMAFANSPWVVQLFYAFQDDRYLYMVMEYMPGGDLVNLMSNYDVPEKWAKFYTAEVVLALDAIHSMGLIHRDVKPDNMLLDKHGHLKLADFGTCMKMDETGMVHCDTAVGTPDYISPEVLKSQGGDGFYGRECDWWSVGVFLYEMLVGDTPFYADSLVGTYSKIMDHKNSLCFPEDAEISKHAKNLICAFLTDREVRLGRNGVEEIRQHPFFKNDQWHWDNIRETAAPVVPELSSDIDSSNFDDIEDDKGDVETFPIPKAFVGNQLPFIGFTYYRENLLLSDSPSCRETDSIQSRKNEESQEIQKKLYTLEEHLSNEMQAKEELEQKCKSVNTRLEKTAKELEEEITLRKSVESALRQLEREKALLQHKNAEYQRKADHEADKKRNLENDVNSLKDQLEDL

The target of assay [2] is T1, ROCKII (1-543). The experiment in a line: IMAP Assay (fluorescence polarization, FAM S6 peptide). In kind it is biochemical. The following applies: 100 μM ATP, 200 nM FAM S6 peptide, 1 nM kinase; read-out: Assay 2 IC50. Here is the method: This assay is performed using FAM S6 substrate peptide (Catalogue #R7184) and IMAP FP Screening Express Kit detection reagents from Molecular Devices (Sunnyvale, Calif.) in IMAP kinase reaction buffer (Tris-HCl, pH 7.2, 10 mM MgCl2, 0.05% NaN3, 0.1% phosphate-free BSA) containing 1 mM DTT. Test compounds dissolved in neat DMSO at 0.3 mg/mL are serially diluted 1 to 3 for concentration response in 100% DMSO. The DMSO serial dilutions are further diluted 33.33-fold in kinase reaction buffer, and 10 μL of this buffer dilution is transferred to Corning black 96-well half area NBS plates for a final top concentration of 3 μg/mL in 1% DMSO. 10 μL aliquot of 3 nM ROCKII (1-543) diluted in kinase reaction buffer is added to each assay well for a final concentration of 1 nM kinase. 10 μL of a mixture of 600 nM FAM S6 peptide and 300 μM ATP diluted in kinase reaction buffer is added to each well for a final concentration of 200 nM peptide and 100 μM ATP. The kinase reaction mixture is incubated for 60 minutes at room temperature. Positive controls are reaction mixtures containing no test compound and negative controls (blanks) are reaction mixtures containing no kinase. The kinase reaction is stopped by addition of 60 μL IMAP progressive binding reagent (Catalog #R7284) diluted 400-fold in 1× Binding buffer A. After 30 min of incubation at room temperature, the plates are read for fluorescence polarization on Analyst Plate Reader using Ex 485 nm, Em 530 nm, and FL 505 dichroic mirror. The mP signals are converted to percent of control (POC) values using the formula: POC=100*(Signal−BCTRL)÷(PCTRL−BCTRL)
Where Signal is the test well signal, BCTRL is the average of background (negative control) well signals on the plate and PCTRL is the average of positive control well signals on the plate. For the concentration-responsive compounds, POC as a function of test compound concentration is fitted to a 4-parameter logistic equation of the form: Y=A+(B−A)/[1+(x/C)D] Where A, B, C, and D are fitted parameters (parameter B is fixed at zero POC), and x and y are the independent and dependent variables, respectively. The IC50 is determined as the inflection point parameter, C.
Target sequence in this assay (O75116 1-543, species assumed): as the sequence (O75116 1-543) above

`CN(C)[C@H]1CCc2nc(NC(=O)c3cccc(OCC(=O)Nc4ccc(C#N)cc4)c3)sc2C1` [Compound 9]: the negative logarithm of the IC50 (pIC50) in assay [1] was 8.77; in assay [2], 8.66.
On the same counts, the results for `N#Cc1ccc(NC(=O)COc2cccc(C(=O)Nc3nc4c(s3)C[C@@H](N)CC4)c2)cc1` [Compound 11, N—((S)-6-amino-4,5,6,7-tetrahydro-benzothiazol-2-yl)-3-[(4-cyano-phenylcarbamoyl)-methoxy]-benzamide] are 8.43 and 7.96.
For `N#Cc1ccc(NC(=O)COc2cccc(C(=O)Nc3nc4c(s3)C[C@@H](N3CCOCC3)CC4)c2)cc1` [Compound 13], the negative logarithm of the IC50 (pIC50) in assay [1] is 8.47; in assay [2], 8.07.
Taken in the same sequence, the figures for `N#Cc1cccc(NC(=O)N2CCC[C@@H]2c2cccc(C(=O)Nc3ccc(CCN4CCOCC4)cc3)c2)c1` [Compound 16, (R)-2-{3-[4-(2-morpholin-4-yl-ethyl)-phenylcarbamoyl]-phenyl}-pyrrolidine-1-carboxylic acid (3-cyano-phenyl)-amide trifluoro acetic acid] were 8.24 and 7.64.
Taken in the same sequence, the figures for `N#Cc1cccc(NC(=O)N2CCC[C@@H]2c2cccc(C(=O)Nc3ccc(CCN4CCCC4)cc3)c2)c1` [Compound 18] were 8.22 and 7.72.
On the same counts, the results for `N#Cc1cccc(NC(=O)N2CCC[C@@H]2c2cccc(C(=O)Nc3nc4c(s3)C[C@@H](N)CC4)c2)c1` [Compound 20, (R)-2-[3-((S)-6-Amino-4,5,6,7-tetrahydro-benzothiazol-2-ylcarbamoyl)-phenyl]-pyrrolidine-1-carboxylic acid (3-cyano-phenyl)-amide trifluoroacetic acid] are 8.77 and 9.41.
In the case of `N#Cc1cccc(NC(=O)N2CCC[C@@H]2c2cccc(C(=O)Nc3nc4c(s3)C[C@H](N)CC4)c2)c1` [Compound 22], the pIC50 was 8.59 in assay [1] and 9.00 in assay [2].
On the same counts, the results for `CN1CCc2nc(NC(=O)c3cccc([C@H]4CCCN4C(=O)c4ccc(-c5ccncc5)cc4)c3)sc2C1` [Compound 26] are 8.77 and 8.24.
In the case of `CCCN[C@H]1CCc2nc(NC(=O)c3cccc([C@H]4CCCN4C(=O)Nc4cccc(C#N)c4)c3)sc2C1` [Compound 29, (R)-2-[3-((S)-6-propylamino-4,5,6,7-tetrahydro-benzothiazol-2-ylcarbamoyl)-phenyl]-pyrrolidine-1-carboxylic acid (3-cyano-phenyl)-amide], the pIC50 in assay [1] is 8.80; in assay [2] it was 9.10.
On the same counts, the results for `CCCN[C@H]1CCc2nc(NC(=O)c3cccc([C@@H](C)NC(=O)c4ccc(OC)c(OC)c4)c3)sc2C1` [Compound 31, 3,4-dimethoxy-N-{(R)-1-[3-((S)-6-propylamino-4,5,6,7-tetrahydro-benzothiazol-2-ylcarbamoyl)-phenyl]-ethyl}-benzamide] are 9.00 and 9.52.
On the same counts, the results for `CCCN[C@H]1CCc2nc(NC(=O)c3cccc([C@@H](C)NC(=O)c4ccc(OC)c(Cl)c4)c3)sc2C1` [Compound 33] are 8.92 and 9.30.
Taken in the same sequence, the figures for `CCCN[C@H]1CCc2nc(NC(=O)c3cccc([C@@H](C)NC(=O)c4ccc(OC)c(C)c4)c3)sc2C1` [Compound 35] were 9.05 and 9.40.
`CN1CCc2nc(NC(=O)c3cccc([C@H]4CCCN4C(=O)N4CCc5c(C#N)cccc54)c3)sc2C1` [Compound 42, 3-[(R)-1-(4-Cyano-2,3-dihydro-indole-1-carbonyl)-pyrrolidin-2-yl]-N-(5-methyl-4,5,6,7-tetrahydro-thiazolo[5,4-c]pyridin-2-yl)-benzamide trifluoroacetic acid]: the pIC50 in assay [1] is 8.16; in assay [2], 7.35.
Turning to `CN1CCc2nc(NC(=O)c3cccc([C@H]4CCCN4C(=O)Nc4ccc(C(N)=O)cc4)c3)sc2C1` [Compound 44], the negative logarithm of the IC50 (pIC50) in assay [1] was 8.85; in assay [2] it was 9.15.
Taken in the same sequence, the figures for `Cc1nc(-c2ccncc2)sc1C(=O)N1CCC[C@@H]1c1cccc(C(=O)Nc2nc3c(s2)C[C@@H](N(C)C)CC3)c1` [Compound 48] were 8.55 and 8.00.
Consider `CN(C)[C@H]1CCc2nc(NC(=O)c3cccc([C@H]4CCCN4C(=O)c4nnn(-c5nonc5N)c4-c4ccccc4)c3)sc2C1` [Compound 50], for which the negative logarithm of the IC50 (pIC50) in assay [1] is 8.66; in assay [2] it was 8.06.
Take `CN1CCc2nc(NC(=O)c3cccc([C@H]4CCCN4C(=O)c4cccc(-c5cn[nH]c5)c4)c3)sc2C1` [Compound 78]: the pIC50 was 8.72 in assay [1] and 8.68 in assay [2].
On the same counts, the results for `COc1ccc(C(=O)N[C@H](C)c2cccc(C(=O)Nc3nc4c(s3)CN(C)CC4)c2)cc1Cl` [Compound 89] are 8.41 and 7.89.
For the molecule `CN(C)[C@H]1CCc2nc(NC(=O)c3cccc([C@H]4CCCN4C(=O)c4ccc(-c5cnco5)cc4)c3)sc2C1` [Compound 90], the pIC50 in assay [2] is 8.68.
Consider `CN(C)[C@H]1CCc2nc(NC(=O)c3cccc([C@H]4CCCN4C(=O)c4csc(-c5cccnc5)n4)c3)sc2C1` [Compound 92], for which the pIC50 in assay [2] is 8.89.
For `COc1ccc(C(=O)N[C@H](C)c2cccc(C(=O)Nc3nc4c(s3)CN(C)CC4)c2)cc1C` [Compound 93], the pIC50 was 8.05 in assay [1] and 7.54 in assay [2].
For `CN(C)[C@H]1CCc2nc(NC(=O)c3cccc([C@H]4CCCN4C(=O)c4csc(-c5ccncc5)n4)c3)sc2C1` [Compound 94], in assay [2], the pIC50 was 8.70.
For `CN(C)[C@H]1CCc2nc(NC(=O)c3cccc([C@H]4CCCN4C(=O)c4cc(-c5ccncc5)[nH]n4)c3)sc2C1` [Compound 96], the pIC50 in assay [2] is 9.10.
For the molecule `COc1ccc(C(=O)N[C@H](C)c2cccc(C(=O)Nc3nc4c(s3)CN(C)CC4)c2)cc1OC` [Compound 97], the values for the negative-log IC50 (pIC50) in assay [1] and in assay [2] were 8.51 and 8.24, respectively.
Taken in the same sequence, the figures for `CCCC[C@@H](NC(=O)c1ccc(OC)c(OC)c1)c1cccc(C(=O)Nc2nc3c(s2)CN(C)CC3)c1` [Compound 98] were 8.21 and 7.96.
Consider `CN(C)[C@H]1CCc2nc(NC(=O)c3cccc([C@H]4CCCN4C(=O)c4ccc5cc(O)ccc5c4)c3)sc2C1` [Compound 100], for which, in assay [2], the pIC50 is 8.70.
As to `CN1CCc2nc(NC(=O)c3cccc([C@H]4CCCN4C(=O)Nc4cccc(C#N)c4)c3)sc2C1` [Compound 101, (R)-2-[3-(5-Methyl-4,5,6,7-tetrahydro-thiazolo[5,4-c]pyridin-2-ylcarbamoyl)-phenyl]-pyrrolidine-1-carboxylic acid (3-cyano-phenyl)-amide trifluoroacetic acid], the pIC50 in assay [1] was 8.51; in assay [2] it was 8.17.
`CN(C)[C@H]1CCc2nc(NC(=O)c3cccc([C@H]4CCCN4C(=O)c4ccc(-n5ccnc5)cc4)c3)sc2C1` [Compound 102]: the values for the negative-log IC50 (pIC50) in assay [1] and in assay [2] were 8.59 and 8.44, respectively.
Turning to `CN(C)[C@H]1CCc2nc(NC(=O)c3cccc([C@H]4CCCN4C(=O)c4cn5cc(C(N)=O)ccc5n4)c3)sc2C1` [Compound 104], the pIC50 in assay [2] was 8.77.
Still for that read-out and setting: under `CN(C)[C@H]1CCc2nc(NC(=O)c3cccc([C@H]4CCCN4C(=O)c4cccc(-c5cn[nH]c5)c4)c3)sc2C1` [Compound 106] stands 8.72; under `O=C(Nc1nc2c(s1)C[C@@H](N1CCOCC1)CC2)c1cccc([C@H]2CCCN2C(=O)c2cc(-c3ccncc3)[nH]n2)c1` [Compound 138], 8.38.
